Measurements taken from the supplement of paper PMC10307832.

Key:
Test in all cases: relative viability (nuclei count vs DMSO), 5 days (fraction); higher = more cells survive
[1] = compound: C[C@]12O[C@H](C[C@]1(O)CO)n1c3ccccc3c3c4c(c5c6ccccc6n2c5c31)CNC4=O [Lestaurtinib] + CC(C)C[C@H](NC(=O)[C@H](Cc1ccccc1)NC(=O)c1cnccn1)B(O)O [Bortezomib] (partner 0.002 µM)
How it was run: (§1)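 Lung cancer cell lines were pin-tool dosed in 1536-well plates on the day after seeding, with either a lone drug or a fixed anchor-drug dose plus five library-drug doses (not always all listed) in √10 steps. Nuclei were counted on 4× images after 5 days. Relative viability is the ratio of treated-well to vehicle-well nuclei counts, with each value a median of duplicate plates.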

Lestaurtinib + Lapatinib = compound: C[C@]12O[C@H](C[C@]1(O)CO)n1c3ccccc3c3c4c(c5c6ccccc6n2c5c31)CNC4=O [Lestaurtinib] + CS(=O)(=O)CCNCc1ccc(-c2ccc3ncnc(Nc4ccc(OCc5cccc(F)c5)c(Cl)c4)c3c2)o1 [Lapatinib] (partner 2 µM)
How it was run: as §1

[2] = compound: C[C@]12O[C@H](C[C@]1(O)CO)n1c3ccccc3c3c4c(c5c6ccccc6n2c5c31)CNC4=O [Lestaurtinib] + Cc1cc(Nc2cc(N3CCN(C)CC3)nc(Sc3ccc(NC(=O)C4CC4)cc3)n2)n[nH]1 [Tozasertib] (partner 0.1 µM)
How it was run: as §1

TPCA-1 + Pemetrexed = compound: C1=CC(=CC=C1C2=CC(=C(S2)NC(=O)N)C(=O)N)F [TPCA-1] + Nc1nc2[nH]cc(CCc3ccc(C(=O)N[C@@H](CCC(=O)O)C(=O)O)cc3)c2c(=O)[nH]1 [Pemetrexed] (partner 0.2 µM)
How it was run: as §1

Cell Line | relative viability ([1]; first compound 0.005 µM) | relative viability ([1]; first compound 0.01581 µM) | relative viability ([1]; first compound 0.05 µM) | relative viability ([1]; first compound 0.1581 µM) | relative viability ([1]; first compound 0.5 µM) | relative viability (Lestaurtinib + Lapatinib; first compound 0.005 µM) | relative viability (Lestaurtinib + Lapatinib; first compound 0.01581 µM) | relative viability (Lestaurtinib + Lapatinib; first compound 0.05 µM) | relative viability (Lestaurtinib + Lapatinib; first compound 0.1581 µM) | relative viability (Lestaurtinib + Lapatinib; first compound 0.5 µM) | relative viability ([2]; first compound 0.005 µM) | relative viability ([2]; first compound 0.01581 µM) | relative viability ([2]; first compound 0.05 µM) | relative viability ([2]; first compound 0.1581 µM) | relative viability ([2]; first compound 0.5 µM) | relative viability (TPCA-1 + Pemetrexed; first compound 0.04 µM) | relative viability (TPCA-1 + Pemetrexed; first compound 0.1265 µM) | relative viability (TPCA-1 + Pemetrexed; first compound 0.4 µM) | relative viability (TPCA-1 + Pemetrexed; first compound 1.265 µM) | relative viability (TPCA-1 + Pemetrexed; first compound 4 µM)
ABC-1 | 0.352 | 0.332 | 0.292 | 0.308 | 0.2 | 1.27 | 1.32 | 1.06 | 1.01 | 1.15 | 0.208 | 0.175 | 0.134 | 0.155 | 0.2 |  |  |  |  | 
IA-LM | 1.08 | 1.18 | 1.08 | 0.943 | 0.339 | 1 | 1.06 | 0.91 | 0.905 | 0.396 |  |  |  |  |  |  |  |  |  | 
NCI-H322M | 1.25 | 1.34 | 1.13 | 0.588 | 0.967 | 0.555 | 0.567 | 0.416 | 0.424 | 0.525 | 0.483 | 0.276 | 0.355 | 0.397 | 0.415 | 0.614 | 0.481 | 0.57 | 0.566 | 0.497
NCI-H1792 | 1.29 | 1.08 | 0.5 | 1.07 | 0.437 | 0.779 | 1.05 | 0.56 | 0.653 | 0.244 |  |  |  |  |  | 1.24 | 0.721 | 0.764 | 0.672 | 0.222
LXF-289 | 0.975 | 1.08 | 0.75 | 0.762 | 0.185 | 0.867 | 0.917 | 0.713 | 0.769 | 0.375 | 0.229 | 0.206 | 0.194 | 0.203 | 0.141 | 0.883 | 0.869 | 0.903 | 0.877 | 0.535
HCC-827 | 0.923 | 1.08 | 0.989 | 1.11 | 0.647 | 0.201 | 0.197 | 0.212 | 0.188 | 0.192 | 0.492 | 0.405 | 0.396 | 0.348 | 0.217 | 0.252 | 0.267 | 0.281 | 0.256 | 0.276
SW 900 |  |  |  |  |  |  |  |  |  |  | 0.462 | 0.683 | 0.503 | 0.703 | 0.538 |  |  | 0.492 | 0.495 | 0.468
SK-MES-1 |  |  |  |  |  | 0.529 | 0.453 | 0.374 | 0.324 | 0.285 | 0.966 | 0.834 | 0.341 | 0.455 | 0.197 | 0.925 | 0.808 | 0.91 | 0.769 | 0.631
NCI-H1299 | 1.04 | 0.982 | 1.03 | 0.843 | 0.751 | 0.972 | 1.01 | 0.893 | 0.862 | 0.479 |  |  |  |  |  |  |  |  |  | 
NCI-H1563 | 0.938 | 0.836 | 0.741 | 0.957 | 0.705 | 1.1 | 0.947 | 1.06 | 1.05 | 0.776 |  |  |  |  |  | 0.799 | 0.508 | 0.788 | 0.642 | 0.599
NCI-H1944 |  |  |  |  |  | 0.924 | 0.733 | 0.691 | 0.58 | 0.571 | 0.262 | 0.276 | 0.234 | 0.236 | 0.201 | 0.631 | 0.466 | 0.705 | 0.589 | 0.487
LK-2 |  |  |  |  |  | 0.89 | 1.07 | 0.64 | 0.496 | 0.283 | 0.161 | 0.183 | 0.165 | 0.17 | 0.164 | 0.268 |  | 0.253 | 0.232 | 0.141
NCI-H727 | 0.862 | 1.42 | 0.752 | 0.76 | 0.291 | 1.21 | 0.986 | 0.78 | 0.813 | 0.263 | 0.598 | 0.728 | 0.63 | 0.584 | 0.41 |  |  |  |  | 
Calu-6 | 1.07 | 0.875 | 0.744 | 0.562 | 0.184 | 1.09 | 1.2 | 0.557 | 0.499 | 0.208 |  |  |  |  |  |  |  |  |  | 
NCI-H1395 |  |  |  |  |  | 1.15 | 1.26 | 0.848 | 0.853 | 0.416 | 0.773 | 0.791 | 0.64 | 0.721 | 0.46 | 0.857 | 0.859 | 1.06 | 0.847 | 0.629
NCI-H1703 | 0.31 | 0.359 | 0.308 | 0.137 | 0.117 | 1.07 | 1.09 | 0.597 | 0.278 | 0.123 |  |  |  |  |  |  |  |  |  | 
EBC-1 | 0.495 | 0.621 | 0.504 | 0.43 | 0.227 | 0.164 | 0.236 | 0.251 | 0.234 | 0.185 |  |  |  |  |  |  |  |  |  | 
NCI-H2342 |  |  |  |  |  |  |  |  |  |  | 0.528 | 0.502 | 0.538 | 0.418 | 0.418 | 0.821 | 0.709 | 0.778 | 0.609 | 0.584
ChaGo-K-1 | 0.944 | 1.51 | 0.931 | 0.718 | 0.5 |  |  |  |  |  | 0.221 | 0.254 | 0.243 | 0.231 | 0.215 | 0.273 | 0.23 | 0.274 | 0.261 | 0.211
NCI-H1648 |  |  |  |  |  |  |  |  |  |  | 0.377 | 0.649 | 0.391 | 0.487 | 0.49 | 0.824 | 0.702 | 0.769 | 0.76 | 0.809
NCI-H522 |  |  |  |  |  |  |  |  |  |  | 0.571 | 0.536 | 0.627 | 0.528 | 0.496 | 1.21 | 0.765 | 1.15 | 1.14 | 0.975
A549 |  |  |  |  |  | 1.1 | 0.972 | 0.447 | 0.132 | 0.0697 |  |  |  |  |  |  |  |  |  | 
NCI-H441 | 0.4 | 0.618 | 0.603 | 0.295 | 0.367 |  |  |  |  |  | 0.711 | 0.719 | 0.537 | 0.651 | 0.442 | 0.247 | 0.257 | 0.258 | 0.24 | 0.242
LCLC-103H | 1.09 | 1.07 | 0.943 | 0.908 | 0.56 |  |  |  |  |  | 0.526 | 0.595 | 0.384 | 0.424 | 0.209 | 0.522 | 0.426 | 0.464 | 0.398 | 0.432
